According to ChEMBL document CHEMBL1134574, “Synthesis and characterization of non-steroidal ligands for the glucocorticoid receptor: selective quinoline derivatives with prednisolone-equivalent functional activity” (J Med Chem, 2001):
pIC50, pKi: −log10 of the molar value.

Tests used:
Glucocorticoid receptor [1] = target: T1, Glucocorticoid receptor (Homo sapiens, UniProt P04150); assay: Glucocorticoid-induced aromatase activity in human skin fibroblasts; type: functional
T1 sequence (P04150 whole entry): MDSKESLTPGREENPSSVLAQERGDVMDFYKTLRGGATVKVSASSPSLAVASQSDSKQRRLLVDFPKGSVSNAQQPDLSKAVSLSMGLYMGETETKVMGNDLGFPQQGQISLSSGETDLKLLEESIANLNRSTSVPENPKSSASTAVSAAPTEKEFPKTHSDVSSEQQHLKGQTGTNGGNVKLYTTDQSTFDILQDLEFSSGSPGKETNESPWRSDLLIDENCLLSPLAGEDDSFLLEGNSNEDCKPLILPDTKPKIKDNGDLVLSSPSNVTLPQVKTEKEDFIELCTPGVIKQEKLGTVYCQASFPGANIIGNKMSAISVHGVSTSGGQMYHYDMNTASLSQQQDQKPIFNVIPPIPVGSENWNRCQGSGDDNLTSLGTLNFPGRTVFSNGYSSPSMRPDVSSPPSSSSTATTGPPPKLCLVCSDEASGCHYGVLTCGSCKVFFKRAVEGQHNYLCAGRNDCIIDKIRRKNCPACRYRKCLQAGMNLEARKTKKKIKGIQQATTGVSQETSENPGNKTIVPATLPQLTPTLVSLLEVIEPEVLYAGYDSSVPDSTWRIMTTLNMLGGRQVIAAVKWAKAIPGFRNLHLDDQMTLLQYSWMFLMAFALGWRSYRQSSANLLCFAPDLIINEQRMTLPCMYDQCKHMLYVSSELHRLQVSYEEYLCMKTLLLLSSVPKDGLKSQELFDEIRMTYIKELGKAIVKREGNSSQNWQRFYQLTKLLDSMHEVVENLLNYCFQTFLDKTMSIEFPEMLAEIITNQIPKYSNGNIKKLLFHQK

Glucocorticoid receptor [2] = target: T1, Glucocorticoid receptor; assay: Transcriptional repression activity in HEP G2 cells expressing glucocorticoid receptor compared to Dexamethasone; type: functional, cell-based, HepG2
Glucocorticoid receptor [3] = target: T1, Glucocorticoid receptor; assay: Repression activity of GR ligand with interleukin-6 receptor in native cell assay using Dexamethasone was determined as maximal potency; type: functional
Estrogen receptor = Estrogen receptor (Homo sapiens, UniProt Q92731+P03372); assay: Binding affinity for estrogen receptor; type: protein assay
Glucocorticoid receptor [4] = target: T1, Glucocorticoid receptor; assay: Binding affinity for glucocorticoid receptor
Glucocorticoid receptor [5] = target: T1, Glucocorticoid receptor; assay: Transcriptional activation in CV-1 cells expressing glucocorticoid receptor; type: functional, cell-based
[6] = target: T2, Mineralocorticoid receptor (Homo sapiens, UniProt P08235); assay: Binding affinity for mineralocorticoid receptor
T2 sequence (P08235 whole entry): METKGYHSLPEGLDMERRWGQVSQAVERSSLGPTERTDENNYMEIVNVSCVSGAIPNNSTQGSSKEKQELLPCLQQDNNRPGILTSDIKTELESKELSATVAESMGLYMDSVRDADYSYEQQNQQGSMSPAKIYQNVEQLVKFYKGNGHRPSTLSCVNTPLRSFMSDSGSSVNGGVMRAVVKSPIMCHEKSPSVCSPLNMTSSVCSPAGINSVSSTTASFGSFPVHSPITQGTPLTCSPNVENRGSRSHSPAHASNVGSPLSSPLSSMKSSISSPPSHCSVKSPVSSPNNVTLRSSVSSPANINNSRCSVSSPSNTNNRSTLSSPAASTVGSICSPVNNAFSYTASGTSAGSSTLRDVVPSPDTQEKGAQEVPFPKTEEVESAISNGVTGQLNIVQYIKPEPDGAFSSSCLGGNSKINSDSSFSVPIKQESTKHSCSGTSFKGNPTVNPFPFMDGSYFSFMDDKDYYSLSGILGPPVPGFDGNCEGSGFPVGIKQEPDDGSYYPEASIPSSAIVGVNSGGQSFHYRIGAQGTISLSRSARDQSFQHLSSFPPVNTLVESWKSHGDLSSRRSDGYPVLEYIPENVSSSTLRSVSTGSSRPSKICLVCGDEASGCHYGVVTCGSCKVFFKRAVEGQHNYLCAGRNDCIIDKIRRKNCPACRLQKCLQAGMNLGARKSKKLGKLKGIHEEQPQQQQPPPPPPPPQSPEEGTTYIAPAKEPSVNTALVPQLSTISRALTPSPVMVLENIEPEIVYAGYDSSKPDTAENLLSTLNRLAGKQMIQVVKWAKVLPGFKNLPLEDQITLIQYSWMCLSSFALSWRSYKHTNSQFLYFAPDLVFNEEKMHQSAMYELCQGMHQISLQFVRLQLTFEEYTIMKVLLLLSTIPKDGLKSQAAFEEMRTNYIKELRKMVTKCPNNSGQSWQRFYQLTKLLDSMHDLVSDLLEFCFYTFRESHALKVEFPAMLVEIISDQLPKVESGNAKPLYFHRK

Androgen receptor = target: T3, Androgen receptor (Homo sapiens, UniProt P10275); assay: Binding affinity for androgen receptor
T3 sequence (P10275 whole entry): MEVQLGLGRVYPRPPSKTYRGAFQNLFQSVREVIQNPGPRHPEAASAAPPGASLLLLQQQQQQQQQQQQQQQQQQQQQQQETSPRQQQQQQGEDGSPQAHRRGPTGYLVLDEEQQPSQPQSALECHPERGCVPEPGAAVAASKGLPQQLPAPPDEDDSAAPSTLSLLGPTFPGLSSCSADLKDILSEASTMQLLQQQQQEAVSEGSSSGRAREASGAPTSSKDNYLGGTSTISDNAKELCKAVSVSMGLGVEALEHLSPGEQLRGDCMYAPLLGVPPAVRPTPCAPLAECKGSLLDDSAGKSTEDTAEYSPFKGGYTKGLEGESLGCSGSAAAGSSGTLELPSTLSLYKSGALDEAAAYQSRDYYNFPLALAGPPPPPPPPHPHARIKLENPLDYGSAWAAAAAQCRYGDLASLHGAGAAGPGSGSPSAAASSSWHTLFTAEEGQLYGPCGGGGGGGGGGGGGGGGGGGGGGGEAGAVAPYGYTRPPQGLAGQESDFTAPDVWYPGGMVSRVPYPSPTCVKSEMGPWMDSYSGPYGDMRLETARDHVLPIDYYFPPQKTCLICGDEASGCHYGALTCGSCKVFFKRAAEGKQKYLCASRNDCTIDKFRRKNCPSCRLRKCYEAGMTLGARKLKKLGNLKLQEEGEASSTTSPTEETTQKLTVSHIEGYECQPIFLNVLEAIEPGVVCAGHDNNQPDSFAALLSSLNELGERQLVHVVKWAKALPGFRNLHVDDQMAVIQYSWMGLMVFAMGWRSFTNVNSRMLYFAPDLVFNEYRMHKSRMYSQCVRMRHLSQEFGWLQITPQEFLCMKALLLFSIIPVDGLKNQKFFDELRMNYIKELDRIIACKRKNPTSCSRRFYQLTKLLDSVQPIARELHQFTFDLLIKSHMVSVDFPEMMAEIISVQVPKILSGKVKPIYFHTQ

Progesterone receptor = target: T4, Progesterone receptor (Homo sapiens, UniProt P06401); assay: Binding affinity for progesterone receptor
T4 sequence (P06401 whole entry): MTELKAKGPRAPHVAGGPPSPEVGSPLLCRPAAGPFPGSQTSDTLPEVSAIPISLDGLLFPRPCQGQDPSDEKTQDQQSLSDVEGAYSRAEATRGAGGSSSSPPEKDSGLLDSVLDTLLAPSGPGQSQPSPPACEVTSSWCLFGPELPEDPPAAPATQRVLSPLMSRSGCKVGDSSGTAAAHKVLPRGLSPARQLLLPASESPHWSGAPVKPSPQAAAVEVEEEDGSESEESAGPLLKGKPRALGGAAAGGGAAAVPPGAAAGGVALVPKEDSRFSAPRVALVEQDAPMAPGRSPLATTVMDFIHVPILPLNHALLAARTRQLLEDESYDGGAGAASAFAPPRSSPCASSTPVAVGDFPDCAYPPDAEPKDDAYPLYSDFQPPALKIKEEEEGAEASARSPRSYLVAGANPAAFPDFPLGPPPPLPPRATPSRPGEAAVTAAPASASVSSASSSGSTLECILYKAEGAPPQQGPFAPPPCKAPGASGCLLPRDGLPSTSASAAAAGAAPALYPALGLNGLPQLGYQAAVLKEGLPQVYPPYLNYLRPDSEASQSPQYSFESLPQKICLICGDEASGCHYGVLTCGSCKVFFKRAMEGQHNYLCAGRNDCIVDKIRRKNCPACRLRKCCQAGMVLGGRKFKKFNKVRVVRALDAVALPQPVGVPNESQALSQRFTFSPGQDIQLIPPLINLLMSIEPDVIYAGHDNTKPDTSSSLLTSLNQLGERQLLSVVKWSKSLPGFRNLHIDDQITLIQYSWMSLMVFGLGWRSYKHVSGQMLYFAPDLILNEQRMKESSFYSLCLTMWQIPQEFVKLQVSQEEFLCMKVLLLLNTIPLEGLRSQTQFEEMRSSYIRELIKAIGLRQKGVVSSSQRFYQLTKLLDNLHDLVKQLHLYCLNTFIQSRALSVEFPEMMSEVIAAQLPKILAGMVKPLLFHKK

Rattus norvegicus = organism: Rattus norvegicus; assay: Anti-asthmatic effect as eosinophil influx in rat lung model; type: functional
Glucocorticoid receptor [7] = target: T1, Glucocorticoid receptor; assay: Transcriptional repression of IL-1 stimulated IL-6 expression in native cells compared to Dexamethasone; type: functional, cell-based
Glucocorticoid receptor [8] = target: T1, Glucocorticoid receptor; assay: Displacement of [3H]- Dexamethasone from glucocorticoid receptor

COc1cccc2c1-c1ccc3c(c1C(c1cccc(C(F)(F)F)c1)O2)C(C)=CC(C)(C)N3 (stereo unspecified)
pIC50 (Glucocorticoid receptor [1]): 6.98
pIC50 (Glucocorticoid receptor [2]): 7.24
pIC50 (Glucocorticoid receptor [3]): 7.49
Ki (Estrogen receptor): > 1000 nM
pKi (Glucocorticoid receptor [4]): 7.96
pIC50 (Glucocorticoid receptor [5]): 7.36
pKi [6]: 6.31
pKi (Androgen receptor): 5.47

COc1cccc2c1-c1ccc3c(c1C(c1cc(Cl)cc(Cl)c1)O2)C(C)=CC(C)(C)N3 (stereo in doubt; (-)22)
pKi (Progesterone receptor): 5.81

COc1cccc2c1-c1ccc3c(c1C(c1cc(Cl)cc(Cl)c1)O2)C(C)=CC(C)(C)N3 (stereo in doubt; 17)
pKi (Progesterone receptor): < 5.30

COCOc1cccc(C2Oc3cccc(OC)c3-c3ccc4c(c32)C(C)=CC(C)(C)N4)c1 (stereo unspecified)
pIC50 (Glucocorticoid receptor [1]): 6.88
pIC50 (Glucocorticoid receptor [2]): 7.64
pIC50 (Glucocorticoid receptor [3]): 7.31
pIC50 (Glucocorticoid receptor [5]): 7.55

COc1ccc2c(c1)-c1ccc3c(c1C(c1ccccc1)O2)C(C)=CC(C)(C)N3 (stereo unspecified)
pKi (Glucocorticoid receptor [4]): 7.74
pKi (Progesterone receptor): 6.41

C[C@]12C=CC(=O)C=C1CC[C@@H]1[C@@H]2[C@@H](O)C[C@@]2(C)[C@H]1CC[C@]2(O)C(=O)CO [PREDNISOLONE]
Ki (Estrogen receptor): > 1000 nM
pKi [6]: 7.43
ED50 (Rattus norvegicus): 1.2 mg/kg

COc1cccc2c1-c1ccc3c(c1C(c1ccccc1)O2)C(C)=CC(C)(C)N3 (single isomer, unassigned; (-))
pIC50 (Glucocorticoid receptor [7]): 7.52
pKi (Glucocorticoid receptor [4]): 8.68
pKi (Progesterone receptor): < 5.30

CC1=CC(C)(C)Nc2ccc3c(c21)C(c1ccccc1)Oc1ccc(Cl)cc1-3 (stereo unspecified)
Ki (Estrogen receptor): > 1000 nM
pKi (Glucocorticoid receptor [4]): 8.03
pKi (Progesterone receptor): 7.28
pKi [6]: 5.96
pKi (Androgen receptor): 5.85

COc1cccc2c1-c1ccc3c(c1C(c1cccc(OC(=O)N(C)C)c1)O2)C(C)=CC(C)(C)N3 (stereo unspecified)
pIC50 (Glucocorticoid receptor [1]): 6.67
pIC50 (Glucocorticoid receptor [2]): 8.22
pIC50 (Glucocorticoid receptor [3]): 7.59
Ki (Estrogen receptor): > 1000 nM
pKi (Progesterone receptor): < 5.30
pIC50 (Glucocorticoid receptor [5]): 7.92
pKi [6]: 5.41
pKi (Glucocorticoid receptor [8]): 8.62
pKi (Androgen receptor): 5.51

COc1cccc2c1-c1ccc3c(c1C(c1cc(C)cc(Br)c1)O2)C(C)=CC(C)(C)N3 (stereo unspecified)
pIC50 (Glucocorticoid receptor [1]): 6.50
pIC50 (Glucocorticoid receptor [2]): 7.74
pIC50 (Glucocorticoid receptor [3]): 7.92
pIC50 (Glucocorticoid receptor [5]): 7.54

COc1cccc2c1-c1ccc3c(c1C(c1cc(F)cc(F)c1)O2)C(C)=CC(C)(C)N3 (stereo unspecified)
pIC50 (Glucocorticoid receptor [1]): 7.25
pIC50 (Glucocorticoid receptor [2]): 8.05
pIC50 (Glucocorticoid receptor [3]): 7.96
pIC50 (Glucocorticoid receptor [5]): 8.00

COc1cccc2c1-c1ccc3c(c1C(c1ccccc1)O2)C(C)=CC(C)(C)N3 (stereo in doubt; 10)
pIC50 (Glucocorticoid receptor [1]): 6.79
pIC50 (Glucocorticoid receptor [2]): 6.91
pIC50 (Glucocorticoid receptor [3]): 7.29
Ki (Estrogen receptor): > 1000 nM
pKi (Glucocorticoid receptor [4]): 8.33
pKi (Progesterone receptor): < 5.30
pIC50 (Glucocorticoid receptor [5]): 6.52
pKi [6]: 5.77
pKi (Androgen receptor): 5.58

COc1cccc2c1-c1ccc3c(c1C(c1cc(Cl)cc(Cl)c1)O2)C(C)=CC(C)(C)N3 (single isomer, unassigned; (+))
pKi (Progesterone receptor): < 5.30
pKi [6]: < 5.30
pKi (Androgen receptor): < 5.30

COc1cccc2c1-c1ccc3c(c1C(c1cc(C)cc(C)c1)O2)C(C)=CC(C)(C)N3 (stereo unspecified)
pIC50 (Glucocorticoid receptor [1]): 6.84
pIC50 (Glucocorticoid receptor [2]): 7.74
pIC50 (Glucocorticoid receptor [3]): 8.04
pIC50 (Glucocorticoid receptor [5]): 7.62

COc1cccc2c1-c1ccc3c(c1C(c1ccccc1)O2)C(C)=CC(C)(C)N3 (stereo in doubt; (+)19)
pKi (Glucocorticoid receptor [4]): 6.62
pKi (Progesterone receptor): < 5.30
pKi [6]: < 5.30
pKi (Androgen receptor): < 5.30

COc1ccc2c(c1)OC(c1ccccc1)c1c-2ccc2c1C(C)=CC(C)(C)N2 (stereo unspecified)
pKi (Glucocorticoid receptor [4]): 5.74
pKi (Progesterone receptor): < 5.30
